Results reported in PubChem BioAssay AID2060326 (Molecular Pharmacology Branch, DTP, NCI, 2025).

Test system: MDA-MB-468 multi-cell spheroids, viability
Assay: Anticancer human tumor MDA-MB-468 cell line growth inhibition [IpAb];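 note: spheroids exposed to agents for seven days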;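 for viability, T/C: 100% = DMSO vehicle control viability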
Details: for IC50: curve of first compound; for viability, T/C: stronger effect = lower value
Text: Combinatorial screen of targeted agents with ipatasertib and abemaciclib in multi-cell type tumor spheroids
A high-throughput screen of multi-cell type tumor spheroids was designed to identify active combinations of targeted small molecules and ipatasertib or abemaciclib. Complex spheroids include a stromal component modeled by human endothelial cells (HUVEC) and fibroblasts modeled by human mesenchymal stem cells (MSCs). The concentration ranges selected for each drug and investigational agent were based upon clinically achievable concentrations if the clinical Cmax of the agent was known.
Compounds. The drugs and investigational agents: ipatasertib (NSC767898), abemaciclib(NSC768073), selumetinib (NSC741078), trametinib (758246), adavosertib (NSC754352), everolimus (NSC733504), sapanisertib (NSC764658), vemurafenib (NSC761431), venetoclax (NSC766270), copanlisib (NSC809693), apelisib (NSC765974), palbociblib (NSC758247), vemurafenib (NSC761431), dabrafenib (NSC764134), ravoxertinib (NSC781343), BMS-387032 (NSC767048), sotorasib (NSC818433), talazoparib (NSC767125) and afursertib (NSC778305), were obtained from the National Cancer Institute (NCI) Developmental Therapeutics Program Chemical Repository. The FDA-approved anticancer drug set is available from the NCI Developmental Therapeutics Program. […] The stock solutions were prepared in dimethyl sulfoxide (DMSO, Sigma-Aldrich, St. Louis, MO, cat. D2650) at 800-fold the tested concentration and stored at -70 degrees C prior to their use. All drugs and investigational agents were tested over a range starting from a high concentration at or near the clinical Cmax and decreasing in half-log increments. If the clinical Cmax for an agent had not been determined, the highest concentration tested was 10 microM.
NCI60 Cell Culture. NCI60 cell lines were obtained from the NCI Developmental Therapeutics Program Tumor Repository. For each lot of cells, the Repository performed Applied Biosystems AmpFLSTR Identifiler testing with PCR amplification to confirm consistency with the published Identifier STR profile for each cell line. Cells were kept in continuous culture for no more than 20 passages. The optimal seeding densities for each of the cell lines at each time point assessed were determined prior to performing the concentration response studies. Briefly, the NCI60 human tumor lines were grown as monolayers in RPMI 1640 medium supplemented with 10% FBS and 2 mmol/L L-glutamine.
An additional 9 lines were from the NCI60 cell line panel including MDA-MB-231 breast carcinoma, MDA-MB-468 breast carcinoma, MCF7 breast carcinoma, Hs578T breast carcinoma, MALME-3M melanoma, SK-MEL-2 melanoma, SK-OV-3 ovarian carcinoma, DU-145 prostate carcinoma, PC-3 prostate carcinoma, all cell lines along with major genetic alterations are listed on Table 2. Pooled donor human umbilical vein endothelial cells (HUVEC, Lonza, cat. CC-2519) and human mesenchymal stem cells (hMSC, Lonza, cat. PT-2501) were purchased from Lonza (Walkersville, MD).
PDMR cell lines were grown in complete medium (DC medium): Dulbecco's modified Eagle's medium (DMEM)/F12 supplemented with 5% fetal bovine serum (FBS), 2 mM L-glutamine, 100 U/mL penicillin and 100 µg/ml streptomycin, 0.4 µg/ml hydrocortisone, 10 ng/ml epidermal growth factor (EGF) recombinant human protein, 24 µg/mL adenine, and 0.1 mg/mL primocin. During culture from frozen stock vials, PDMR cells were cultured in the same medium containing 10 µM Y-27632 (see Table 3). The PDCs were cultured in complete DMEM/F12 media without 10 microM Y-27632 dihydrochloride for at least two passages prior to the screen. The pooled donor HUVEC and hMSC were cultured in endothelial cell growth medium 2 (PromoCell, Heidelberg, Germany, cat. C-22011) and mesenchymal stem cell growth medium 2 (PromoCell, cat. C-28009), respectively. For all experiments, HUVEC and hMSC were used at passages </=5.
[…]

[1] = second compound 0.1 µM, first compound 0.0316 µM
[2] = second compound 0.1 µM, first compound 0.1 µM
[3] = second compound 0.1 µM, first compound 0.316 µM
[4] = second compound 0.1 µM, first compound 1 µM
[5] = second compound 0.316 µM, first compound 0.0316 µM
[6] = second compound 0.316 µM, first compound 0.1 µM
[7] = second compound 0.316 µM, first compound 0.316 µM
[8] = second compound 0.316 µM, first compound 1 µM
[9] = second compound 1 µM, first compound 0.0316 µM
[10] = second compound 1 µM, first compound 0.1 µM
[11] = second compound 1 µM, first compound 0.316 µM
[12] = second compound 1 µM, first compound 1 µM
[13] = second compound 3.16 µM, first compound 0.0316 µM
[14] = second compound 3.16 µM, first compound 0.1 µM
[15] = second compound 3.16 µM, first compound 0.316 µM
[16] = second compound 3.16 µM, first compound 1 µM
[17] = second compound 10 µM, first compound 0.0316 µM
[18] = second compound 10 µM, first compound 0.1 µM
[19] = second compound 10 µM, first compound 0.316 µM
[20] = second compound 10 µM, first compound 1 µM

CC(=O)c1c(C)c2cnc(Nc3ccc(N4CCNCC4)cn3)nc2n(C2CCCC2)c1=O + CC(C)NCC(C(=O)N1CCN(c2ncnc3c2C(C)CC3O)CC1)c1ccc(Cl)cc1
IC50 (second compound 0.1 µM): > 300 nM
IC50 (second compound 0.316 µM): > 300 nM
IC50 (second compound 1 µM): 4.44 nM
IC50 (second compound 3.16 µM): < 0.949 nM
IC50 (second compound 10 µM): < 0.949 nM
viability, T/C (second compound 0.1 µM, first compound 0.000949 µM): 87.4%
viability, T/C (second compound 0.1 µM, first compound 0.003 µM): 80.3%
viability, T/C (second compound 0.1 µM, first compound 0.00949 µM): 73.1%
viability, T/C (second compound 0.1 µM, first compound 0.03 µM): 81%
viability, T/C (second compound 0.1 µM, first compound 0.0949 µM): 71.4%
viability, T/C (second compound 0.1 µM, first compound 0.3 µM): 77.8%
viability, T/C (second compound 0.316 µM, first compound 0.000949 µM): 66.1%
viability, T/C (second compound 0.316 µM, first compound 0.003 µM): 61%
viability, T/C (second compound 0.316 µM, first compound 0.00949 µM): 57.4%
viability, T/C (second compound 0.316 µM, first compound 0.03 µM): 54.8%
viability, T/C (second compound 0.316 µM, first compound 0.0949 µM): 59.5%
viability, T/C (second compound 0.316 µM, first compound 0.3 µM): 59.5%
viability, T/C (second compound 1 µM, first compound 0.000949 µM): 57.9%
viability, T/C (second compound 1 µM, first compound 0.003 µM): 51.8%
viability, T/C (second compound 1 µM, first compound 0.00949 µM): 46.4%
viability, T/C (second compound 1 µM, first compound 0.03 µM): 48.1%
viability, T/C (second compound 1 µM, first compound 0.0949 µM): 49.6%
viability, T/C (second compound 1 µM, first compound 0.3 µM): 48.3%
viability, T/C (second compound 3.16 µM, first compound 0.000949 µM): 35.9%
viability, T/C (second compound 3.16 µM, first compound 0.003 µM): 36.4%
viability, T/C (second compound 3.16 µM, first compound 0.00949 µM): 31.9%
viability, T/C (second compound 3.16 µM, first compound 0.03 µM): 32.7%
viability, T/C (second compound 3.16 µM, first compound 0.0949 µM): 29.5%
viability, T/C (second compound 3.16 µM, first compound 0.3 µM): 29.8%
viability, T/C (second compound 10 µM, first compound 0.000949 µM): 18.6%
viability, T/C (second compound 10 µM, first compound 0.003 µM): 19.3%
viability, T/C (second compound 10 µM, first compound 0.00949 µM): 19.9%
viability, T/C (second compound 10 µM, first compound 0.03 µM): 17.5%
viability, T/C (second compound 10 µM, first compound 0.0949 µM): 17.3%
viability, T/C (second compound 10 µM, first compound 0.3 µM): 17.6%

COc1c(OCCCN2CCOCC2)ccc2c3n(c(=NC(=O)c4cnc(N)nc4)nc12)CCN3 + CC(C)NCC(C(=O)N1CCN(c2ncnc3c2C(C)CC3O)CC1)c1ccc(Cl)cc1
IC50 (second compound 0.1 µM): 83.7 nM
IC50 (second compound 0.316 µM): 33.8 nM
IC50 (second compound 1 µM): < 3.16 nM
IC50 (second compound 3.16 µM): < 3.16 nM
IC50 (second compound 10 µM): < 3.16 nM
viability, T/C (second compound 0.1 µM, first compound 0.00316 µM): 98.4%
viability, T/C (second compound 0.1 µM, first compound 0.01 µM): 78.2%
viability, T/C [1]: 70.2%
viability, T/C [2]: 49.7%
viability, T/C [3]: 20.3%
viability, T/C [4]: 3.61%
viability, T/C (second compound 0.316 µM, first compound 0.00316 µM): 68.5%
viability, T/C (second compound 0.316 µM, first compound 0.01 µM): 56.1%
viability, T/C [5]: 54%
viability, T/C [6]: 36.3%
viability, T/C [7]: 18.1%
viability, T/C [8]: 2.31%
viability, T/C (second compound 1 µM, first compound 0.00316 µM): 51.3%
viability, T/C (second compound 1 µM, first compound 0.01 µM): 40.3%
viability, T/C [9]: 38.9%
viability, T/C [10]: 26.8%
viability, T/C [11]: 11.9%
viability, T/C [12]: 1.77%
viability, T/C (second compound 3.16 µM, first compound 0.00316 µM): 30.4%
viability, T/C (second compound 3.16 µM, first compound 0.01 µM): 26.5%
viability, T/C [13]: 23%
viability, T/C [14]: 19.1%
viability, T/C [15]: 9.55%
viability, T/C [16]: 1.46%
viability, T/C (second compound 10 µM, first compound 0.00316 µM): 16.1%
viability, T/C (second compound 10 µM, first compound 0.01 µM): 12.8%
viability, T/C [17]: 11%
viability, T/C [18]: 8.37%
viability, T/C [19]: 4.92%
viability, T/C [20]: 0.95%

Cc1nc(NC(=O)N2CCCC2C(N)=O)sc1-c1ccnc(C(C)(C)C(F)(F)F)c1 (stereo not given) + CC(C)NCC(C(=O)N1CCN(c2ncnc3c2C(C)CC3O)CC1)c1ccc(Cl)cc1
IC50 (second compound 0.1 µM): 5510 nM
IC50 (second compound 0.316 µM): 3820 nM
IC50 (second compound 1 µM): < 31.6 nM
IC50 (second compound 3.16 µM): < 31.6 nM
IC50 (second compound 10 µM): < 31.6 nM
viability, T/C [1]: 82.6%
viability, T/C [2]: 75.6%
viability, T/C [3]: 79.1%
viability, T/C [4]: 75.6%
viability, T/C (second compound 0.1 µM, first compound 3.16 µM): 72.3%
viability, T/C (second compound 0.1 µM, first compound 10 µM): 26.3%
viability, T/C [5]: 61.5%
viability, T/C [6]: 61.1%
viability, T/C [7]: 58.9%
viability, T/C [8]: 53.7%
viability, T/C (second compound 0.316 µM, first compound 3.16 µM): 57.1%
viability, T/C (second compound 0.316 µM, first compound 10 µM): 16.3%
viability, T/C [9]: 47.8%
viability, T/C [10]: 45.7%
viability, T/C [11]: 48%
viability, T/C [12]: 36.8%
viability, T/C (second compound 1 µM, first compound 3.16 µM): 31.4%
viability, T/C (second compound 1 µM, first compound 10 µM): 8.2%
viability, T/C [13]: 32.6%
viability, T/C [14]: 30.6%
viability, T/C [15]: 25.5%
viability, T/C [16]: 20.8%
viability, T/C (second compound 3.16 µM, first compound 3.16 µM): 20.6%
viability, T/C (second compound 3.16 µM, first compound 10 µM): 4.36%
viability, T/C [17]: 16.3%
viability, T/C [18]: 14.8%
viability, T/C [19]: 13.2%
viability, T/C [20]: 10.3%
viability, T/C (second compound 10 µM, first compound 3.16 µM): 7.57%
viability, T/C (second compound 10 µM, first compound 10 µM): 1.53%
